Measured values published in patent US7285541B2, “Treatment of melanoma by reduction in clusterin levels” (The University of British Columbia, priority 2002, dated 2007).
e = 2'-O-(2-methoxyethyl) (MOE); d = 2'-deoxy (DNA)

Columns and labels:
bcl-xL = bcl-xL expression in clusterin-expressing melanoma cells (Western blotting); assay type: cell-based, human
Source text: While chaperone-like function has been proposed for the clusterin protein, the specific molecular mechanism responsible for clusterin's role in apoptosis remains elusive. In the human melanoma cell line that expressed clusterin at a very low levels, over-expression of clusterin by stable transfection not only led to a marked increase in resistance to a cytotoxic treatment (FIG. 3), but led also to an up-regulation of the anti-apoptotic bcl-2 family member bcl-xL as shown by Western blotting. […] Thus, clusterin regulates the anti-apoptotic bcl-2 family member bcl-xL. Such inhibition is significant because bcl-xL is known to act as an inhibitor of apoptosis (See U.S. Pat. No. 6,182,216 which is incorporated herein by reference in those jurisdictions permitting such incorporation).

human melanoma cells = test: Apoptotic cell death of human melanoma cells after antisense treatment; assay type: cell-based; conditions: antisense treatment alone
607B melanoma cells = test: Cell number of 607B melanoma cells measured photometrically using MTS; assay type: cell-based, human
Method: Lipofectin™ (lip) without oligonucleotide was used as a control. Cells numbers in 96 well plates were measured photometrically using MTS (Cell Titer 96™, […]).

clusterin = test: Clusterin expression in human melanoma cells by RT-PCR and western-blot; assay type: cell-based; conditions: as compared to the scrambled mismatch control
Method: Expression of clusterin in two different batches of normal human melanocytes (NHEM 6083 and 2489) and four human melanoma cell lines (518A2, SKMEL-28, Mel-Juso and 607B). Cells were grown in 6 cm dishes and harvested when they were 80-90% confluent. 30 μg of protein per lane was applied onto a 10% SDS-Page gel and probed with a polyclonal goat anti-clusterin antibody. Panceau red stain and an antibody directed against β-actin were used as a loading control. In each case, the antisense inhibitor of clusterin used is based on the advanced antisense chemistry 2′MOE as described in U.S. patent application Ser. No. 10/080,794 and has the sequence of Seq. ID. NO. 4.
FIG. 2 provides a graphic representations of clusterin expression in 518A2 cells after treatment with cisplatin and either an antisense oligonucleotide or a scrambled control. Lip is a Lipofectin control without oligonucleotide. Detection was performed using an antibody directed against clusterin.

518A2 cells = test: Sensitivity of antisense-treated melanoma cells to consecutive cisplatin treatment; assay type: cell-based, human; conditions: another melanoma cell line (FIG. 2, 518A2), compared to control-mismatch oligonucleotide
Mel Juso melanoma cells = test: Cell survival of Mel Juso melanoma cells (Neo or clusterin overexpression) in cisplatin, Cell-titer 96; assay type: cell-based, human; conditions: 10 μM cisplatin, clusterin-overexpressing vs empty vector (Neo) Mel Juso cells
Method: Mel Juso melanoma cells stably tranfected with either an empty control vector (Neo) or a vector directing overepression of clusterin were grown in medium containing 10 μM cisplatin. Cell survival was measured using the Cell-titer 96 kits from Promega.

| Compound | expression of bcl-xL (bcl-xL) | apoptotic cell death (human melanoma cells) | cell death (607B melanoma cells; 607B melanoma cell line, antisense treatment alone) | cell counts (607B melanoma cells; 607B melanoma cells, antisense at 250 and 500 nM on two consecutive days, vs scrambled control 100 nM and Lipofectin) | down-regulation of clusterin on the mRNA level (clusterin; RT-PCR) | down-regulation of clusterin on the protein level (clusterin; western-blot) | sensitivity of surviving cells to consecutive treatment with cisplatin (518A2 cells) | effectiveness of the chemotherapy agent (cell survival) (Mel Juso melanoma cells) |
| --- | --- | --- | --- | --- | --- | --- | --- | --- |
| cagcagcagagtcttcatcat (CAGCAGCAGAGTCTTCATCAT; sugars from the 5' end e4 d13 e4, all phosphorothioate, methylation of C not given here) [MOE modification of Seq. ID. NO. 4] | marked down-regulation | increase in apoptotic cell death | complete cell death | significantly reduced | dose dependent down-regulation | dose dependent down-regulation | increased sensitivity |  |
| N.N.[Cl][Pt][Cl] [cisplatin] |  |  |  |  |  |  |  | reduced the effectiveness |
